Measured values reported in US11000574B2, “Hyaluronic acid containing compositions for prevention of the formation of post-surgical scars and post-surgical adhesions” (PERGAMUM AB, priority 2009, dated 2021).
Bridge positions count the residues as written; N and C are the ends. Peptide text beside a SMILES is read from it.

How the values were obtained:
[1] = In vitro release of PXL01 from sodium hyaluronate gel; assay type: physicochemical; conditions: 6 mg/ml PXL01 in 1.5% sodium hyaluronate, 37° C., PBS pH 7.4, within 1 hour
Description: (§1) PXL01 dissolved in sodium chloride solution was added to 2.5% sodium hyaluronate solution at a volume ratio of 2/5 PXL01 solution and 3/5 sodium hyaluronate solution, to obtain 1.5 or 6 mg/ml PXL01 in 1.5% sodium hyaluronate. The solutions were homogenized by drawing the mixtures several times through 2.1 mm diameter needles.
0.25 ml of the formulated product was placed into the well of the tissue culture plate (24-Flat Well Tissue Culture Plate, Techno Plastic Products AG), resulting in a thin film of approximately 1.3 mm. The plates were placed into thermostat (37° C.) for 1 h to allow the product to reach the temperature of 37° C. 0.5 ml of the release medium (PBS, pH 7.4) re-equilibrated at 37° C. was carefully layered over the surface of the gel and the tissue culture plates were transferred into a thermostatic shaker (60 rpm, 37° C.). At predetermined time intervals, 10 microl aliquots of the aqueous solution were withdrawn from the release media. The concentration of PXL01 released was monitored at wavelength of 230 nm using a spectrophotometric measurement. Because the measurement of absorbance at 230 nm could detect the peptide as well as dissolved sodium hyaluronate in the release medium, a control release medium was used which has the same amount of sodium hyaluronate without any PXL01 as that of sodium hyaluronate with the drug.

[2] = system: post-surgical intra-abdominal adhesions; assay: Sidewall defect-cecum abrasion model in rat (post-surgical adhesion prevention); assay type: in vivo, Sprague-Dawley rats; conditions: for adhesion formation compared with control group: rat, 6 days after surgery
Description: Female Sprague-Dawley rats (200-250 g, Charles River Laboratories, Sulzfeldt, Germany) were kept in a 12 hours light-dark cycle and were cared for in accordance with regulations for the protection of laboratory animals. The study was performed after prior approval from the local ethical committee.
Cecum abrasion and excision of the abdominal wall were performed to induce de novo adhesions as described previously (Harris et al. 1995. Analysis of the kinetics of peritoneal adhesion formation in the rat and evaluation of potential antiadhesive agents. Surgery 117, 663-669). Briefly, the rats were anaesthetized with isoflurane (Isoba®vet, Shering-Plough Animal Health, Farum, Denmark) and buprenorfin (48 microg/kg, Temgesic, Shering-Plough, Brussels, Belgium) was given as post-operative pain reliever. A 5-cm-long midline incision of the abdomen was performed and a rectangle full thickness injury (5 mm×25 mm) was made on the peritoneal wall through both the parietal peritoneum and the muscular fascia. Also, an area of the serous membrane on the both sides of the cecum, approximately 10 mm×15 mm, was gently rubbed using cotton gauze until petechial hemorrhages appeared. The rats were randomized to untreated control group or treated groups. Excessive blood from the injury was removed and the test substance was applied over the abraded areas using a syringe. The laparotomy wound was closed with a continuous suture and the skin was closed with metal clips (Appose ULC35W, TycoHealthcare Group LP, Norwalk, Conn., US). […] The abdomen was opened and the adhesions were scored by an evaluator blinded to the treatment. The incidence of adhesions between abdominal incision and the abraded cecum was quantified as a percentage of animals developing wall to wall adhesions connecting these injuries, in each group. […] Finally, the percentage of rats free from any abdominal adhesions was assessed in each group. Any possible signs of peritoneal inflammation (erythema and/or edema) or disrupted wound healing were recorded in connection to the necropsies. […]

[3] = Solubility and stability of PXL01 in sodium hyaluronate; assay type: physicochemical
Description: as §1
PXL01 concentration and homogeneity in sodium hyaluronate were determined by high performance liquid chromatography with UV detector (Agilent model 1100) at 220 nm. The analytical column used was a Vydac 218TP (C18, 5 μm, 250×4.6 mm). The mobile phases used (0.1% TFA in water containing 1% acetonitrile (solvent A) and 0.1% TFA in acetonitrile (solvent B)) were run at a gradient with a flow rate of 1.0 ml/min. Diluted PXL01 standards were applied to create calibration curves.
Samples were prepared by adding hyaluronidase solution (Hyaluronidase from Streptomyces hyalurolyticus, Sigma-Aldrich, St Louis, Mo.) with an enzyme activity of 500 units/ml to sample solutions. The mixtures were agitated for 2 h at room temperature and samples were diluted as needed with TFA in water, followed by additional mixing. The samples were centrifuged at 7000 rpm for 5 min before injection to the column.

Q: With CC[C@H](C)[C@H](NC(=O)[C@@H]1CSSC[C@H](NC(=O)[C@H](CCCCN)NC(=O)[C@@H](NC(=O)[C@H](C)NC(=O)[C@H](CCC(=O)O)NC(C)=O)[C@@H](C)O)C(=O)N[C@@H](Cc2ccccc2)C(=O)N[C@@H](CCC(N)=O)C(=O)N[C@@H](Cc2c[nH]c3ccccc23)C(=O)N[C@@H](CCC(N)=O)C(=O)N[C@@H](CCCNC(=N)N)C(=O)N[C@@H](CC(N)=O)C(=O)N[C@@H](CCSC)C(=O)N[C@@H](CCCNC(=N)N)C(=O)N[C@@H](CCCCN)C(=O)N[C@@H](C(C)C)C(=O)N[C@@H](CCCNC(=N)N)C(=O)NCC(=O)N2CCC[C@H]2C(=O)N2CCC[C@H]2C(=O)N[C@@H](C(C)C)C(=O)N[C@@H](CO)C(=O)N1)C(=O)N[C@@H](CCCCN)C(=O)N[C@@H](CCCNC(=N)N)C(N)=O [PXL01] (Ac-EATKCFQWQRNMRKVRGPPVSCIKR-NH2; disulfide 5-22) as the molecule, how does the “PXL01 released from the sodium hyaluronate gel formulation (cumulative drug released)” value [1] read?
A: approximately 70%

Q: What about the “adhesion formation compared with control group” value ([2]; 3 mg of PXL01 in water solution, single dose in connection to the surgery) of the same molecule?
A: No significant reduction

Q: And the “adhesion formation compared with control group” value ([2]; 3 doses of 1 mg of PXL01 in water solution (at operation, 24 and 48 h post-surgery))?
A: marked reduction

Q: And the “adverse events (listlessness, peritoneal inflammation, inhibition of wound healing)” value ([2]; rats treated with PXL01 at any concentration)?
A: No obvious adverse events

Q: And the “solubility in sodium hyaluronate” value [3]?
A: readily soluble

Q: What about the “stability in sodium hyaluronate” value [3] of the same molecule?
A: sufficiently stable
